Legend:
ASPC1 [1] = experiment: Pro-apoptotic activity in human AsPC1 cells assessed as early apoptotic cells at 30 uM after 24 hrs by annexin V/propidium iodide staining-based flow cytometric method (reference value: 0.8 +/- 0.1%); format: functional
THP-1 [2] = experiment: Pro-apoptotic activity in human THP1 cells assessed as early apoptotic cells at 1 uM after 24 hrs by annexin V/propidium iodide staining-based flow cytometric method (reference value: 0.4 +/- 0.1%); format: functional
[3] = Cell cycle arrest in human AsPC1 cells assessed as accumulation at S phase at 100 uM after 24 hrs by flow cytometric method (reference value: 23 +/- 3%); format: functional, cell-based
[4] = Cell cycle arrest in human AsPC1 cells assessed as accumulation at G2/M phase at 100 uM after 24 hrs by flow cytometric method (reference value: 29 +/- 5%); format: functional, cell-based
[5] = Cell cycle arrest in human AsPC1 cells assessed as accumulation at G2/M phase at 30 uM after 24 hrs by flow cytometric method (reference value: 29 +/- 5%); format: functional, cell-based
ASPC1 [6] = experiment: Pro-apoptotic activity in human AsPC1 cells assessed as late apoptotic cells at 10 uM after 24 hrs by annexin V/propidium iodide staining-based flow cytometric method (reference value: 0.8 +/- 0.1%); format: functional
[7] = Cell cycle arrest in human THP1 cells assessed as accumulation at S phase at 0.75 uM after 24 hrs by flow cytometric method (reference value: 16 +/- 2%); format: functional, cell-based; settings: THP-1
[8] = Cell cycle arrest in human THP1 cells assessed as accumulation at G0/G1 phase at 0.5 uM after 24 hrs by flow cytometric method (reference value: 51 +/- 6%); format: functional, cell-based; settings: THP-1
ASPC1 [9] = experiment: Pro-apoptotic activity in human AsPC1 cells assessed as early apoptotic cells at 75 uM after 24 hrs by annexin V/propidium iodide staining-based flow cytometric method (reference value: 0.8 +/- 0.1%); format: functional
[10] = Cell cycle arrest in human THP1 cells assessed as accumulation at G0/G1 phase at 10 uM after 24 hrs by flow cytometric method (reference value: 51 +/- 6%); format: functional, cell-based; settings: THP-1
[11] = Cell cycle arrest in human THP1 cells assessed as accumulation at G2/M phase at 30 uM after 24 hrs by flow cytometric method (reference value: 32 +/- 1%); format: functional, cell-based; settings: THP-1
[12] = Cell cycle arrest in human THP1 cells assessed as decrease in cell levels at G0/G1 phase after 24 hrs by flow cytometric method; format: functional, cell-based; settings: THP-1
ASPC1 [13] = experiment: Pro-apoptotic activity in human AsPC1 cells assessed as early apoptotic cells at 50 uM after 24 hrs by annexin V/propidium iodide staining-based flow cytometric method (reference value: 0.8 +/- 0.1%); format: functional
[14] = Cell cycle arrest in human THP1 cells assessed as accumulation at G2/M phase at 0.5 uM after 24 hrs by flow cytometric method (reference value: 32 +/- 1%); format: functional, cell-based; settings: THP-1
[15] = Cell cycle arrest in human THP1 cells assessed as accumulation at G0/G1 phase at 1 uM after 24 hrs by flow cytometric method (reference value: 51 +/- 6%); format: functional, cell-based; settings: THP-1
ASPC1 [16] = experiment: Pro-apoptotic activity in human AsPC1 cells assessed as late apoptotic cells at 50 uM after 24 hrs by annexin V/propidium iodide staining-based flow cytometric method (reference value: 0.8 +/- 0.1%); format: functional
[17] = Cell cycle arrest in human AsPC1 cells assessed as accumulation at S phase at 30 uM after 24 hrs by flow cytometric method (reference value: 23 +/- 3%); format: functional, cell-based
[18] = Cell cycle arrest in human THP1 cells assessed as accumulation at G0/G1 phase at 30 uM after 24 hrs by flow cytometric method (reference value: 51 +/- 6%); format: functional, cell-based; settings: THP-1
[19] = Cell cycle arrest in human AsPC1 cells assessed as accumulation at G2/M phase at 1 uM after 24 hrs by flow cytometric method (reference value: 29 +/- 5%); format: functional, cell-based
ASPC1 [20] = experiment: Induction of pro-differentiation of human AsPC1 cells assessed as CD44 expression at 10 uM after 3 days by immunostaining-based micro-capillary flow cytometric method (reference value: 87 +/- 1%); format: functional
ASPC1 [21] = experiment: Pro-apoptotic activity in human AsPC1 cells assessed as late apoptotic cells at 75 uM after 24 hrs by annexin V/propidium iodide staining-based flow cytometric method (reference value: 0.8 +/- 0.1%); format: functional
[22] = Cell cycle arrest in human THP1 cells assessed as accumulation at G0/G1 phase at 0.75 uM after 24 hrs by flow cytometric method (reference value: 51 +/- 6%); format: functional, cell-based; settings: THP-1
THP-1 [23] = experiment: Pro-apoptotic activity in human THP1 cells assessed as necrotic cells at 3 uM after 24 hrs by annexin V/propidium iodide staining-based flow cytometric method relative to control; format: functional
ASPC1 [24] = experiment: Pro-apoptotic activity in human AsPC1 cells assessed as necrotic cells at 1 uM after 24 hrs by annexin V/propidium iodide staining-based flow cytometric method (reference value: 2.1 +/- 0.4%); format: functional
THP-1 [25] = experiment: Pro-apoptotic activity in human THP1 cells assessed as early apoptotic cells at 3 uM after 24 hrs by annexin V/propidium iodide staining-based flow cytometric method (reference value: 0.4 +/- 0.1%); format: functional
[26] = Cell cycle arrest in human AsPC1 cells assessed as accumulation at S phase at 10 uM after 24 hrs by flow cytometric method (reference value: 23 +/- 3%); format: functional, cell-based
THP-1 [27] = experiment: Pro-apoptotic activity in human THP1 cells assessed as late apoptotic cells at 1 uM after 24 hrs by annexin V/propidium iodide staining-based flow cytometric method (reference value: 0.4 +/- 0.1%); format: functional
[28] = Cell cycle arrest in human AsPC1 cells assessed as accumulation at S phase at 1 uM after 24 hrs by flow cytometric method (reference value: 23 +/- 3%); format: functional, cell-based
ASPC1 [29] = experiment: Pro-apoptotic activity in human AsPC1 cells assessed as early apoptotic cells at 10 uM after 24 hrs by annexin V/propidium iodide staining-based flow cytometric method (reference value: 0.8 +/- 0.1%); format: functional
ASPC1 [30] = experiment: Pro-apoptotic activity in human AsPC1 cells after 24 hrs by annexin V/propidium iodide staining-based flow cytometric method; format: functional; settings: ASPC1, 24 h, read-out: ED50 (the source's name)
THP-1 [31] = experiment: Pro-apoptotic activity in human THP1 cells assessed as early apoptotic cells at 10 uM after 24 hrs by annexin V/propidium iodide staining-based flow cytometric method (reference value: 0.4 +/- 0.1%); format: functional
ASPC1 [32] = experiment: Pro-apoptotic activity in human AsPC1 cells assessed as early apoptotic cells at 100 uM after 24 hrs by annexin V/propidium iodide staining-based flow cytometric method (reference value: 0.8 +/- 0.1%); format: functional
THP-1 [33] = experiment: Pro-apoptotic activity in human THP1 cells assessed as early apoptotic cells at 30 uM after 24 hrs by annexin V/propidium iodide staining-based flow cytometric method (reference value: 0.4 +/- 0.1%); format: functional
ASPC1 [34] = experiment: Pro-apoptotic activity in human AsPC1 cells assessed as late apoptotic cells at 30 uM after 24 hrs by annexin V/propidium iodide staining-based flow cytometric method (reference value: 0.8 +/- 0.1%); format: functional
THP-1 [35] = experiment: Pro-apoptotic activity in human THP1 cells assessed as necrotic cells at 0.5 uM after 24 hrs by annexin V/propidium iodide staining-based flow cytometric method relative to control; format: functional

NC(=[Se])N/N=C/c1cccc2cccnc12 gave an Activity (ASPC1 [1]) of 0%, an Activity (THP-1 [2]) of 1.5% and an Activity [3] of 18.8%. The Activity [4] was 17%, the Activity [5] was 8.2% and the Activity (ASPC1 [6]) was 0.8%. The Activity [7] was 21%, the Activity [8] was 50% and the Activity (ASPC1 [9]) was 0.6%. For the same compound, the Activity [10] was 45%, the Activity [11] was 26% and the Activity [12] was “Dose-dependent effect”. It also gave an Activity (ASPC1 [13]) of 0.4%, an Activity [14] of 27% and an Activity [15] of 43%. The Activity (ASPC1 [16]) was 0.3%, the Activity [17] was 22.5% and the Activity [18] was 43%. For the same compound, the Activity [19] was 10.6%, the Activity (ASPC1 [20]) was 77% and the Activity (ASPC1 [21]) was 4.1%. The Activity [22] was 44%, the Activity (THP-1 [23]) was 0.4% and the Activity (ASPC1 [24]) was 1.8%. For the same compound, the Activity (THP-1 [25]) was 2.2%, the Activity [26] was 21.3% and the Activity (THP-1 [27]) was 2%. It also gave an Activity [28] of 35.5%, an Activity (ASPC1 [29]) of 0.4% and an EC50 (ASPC1 [30]) greater than 100 µM. The Activity (THP-1 [31]) was 6%, the Activity (ASPC1 [32]) was 5.7% and the Activity (THP-1 [33]) was 8%. For the same compound, the Activity (ASPC1 [34]) was 1.1% and the Activity (THP-1 [35]) was 0.7%.
